Laboratory results from BindingDB's records for doi:10.1021/acs.jmedchem.5b01153 (University of Illinois At Chicago, 2016).

The molecules below were run against 5-hydroxytryptamine receptor 2B (Homo sapiens, UniProt P41595) (assay: Agonist activity at recombinant human 5HT2B receptor expressed in Flp-In-293 cells assessed as calcium flux by FLIPR assay).
Chain of 5-hydroxytryptamine receptor 2B (P41595 whole entry): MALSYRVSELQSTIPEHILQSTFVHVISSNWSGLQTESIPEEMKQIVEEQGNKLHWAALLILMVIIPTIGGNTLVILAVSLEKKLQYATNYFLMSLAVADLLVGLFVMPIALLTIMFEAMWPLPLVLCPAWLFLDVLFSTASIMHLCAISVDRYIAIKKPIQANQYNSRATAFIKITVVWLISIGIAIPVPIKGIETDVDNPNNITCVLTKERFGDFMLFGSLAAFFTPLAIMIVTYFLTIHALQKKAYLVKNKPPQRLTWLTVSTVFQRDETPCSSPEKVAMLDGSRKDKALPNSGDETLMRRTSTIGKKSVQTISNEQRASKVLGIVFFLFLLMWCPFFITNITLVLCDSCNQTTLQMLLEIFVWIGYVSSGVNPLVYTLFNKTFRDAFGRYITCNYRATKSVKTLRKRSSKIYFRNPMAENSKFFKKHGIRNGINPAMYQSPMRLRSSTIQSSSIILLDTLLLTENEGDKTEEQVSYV
`C=CCOc1cc(F)c(Cl)cc1C1CC1CN` (stereo unspecified) was tested, and the EC50 was 1950 nM.

Each molecule was assayed against T1, 5-hydroxytryptamine receptor 2C (Homo sapiens, UniProt P28335) (assay: Agonist activity at recombinant human 5HT2C-INI receptor expressed in Flp-In-293 cells assessed as calcium flux by FLIPR assay).
T1 sequence (P28335 whole entry): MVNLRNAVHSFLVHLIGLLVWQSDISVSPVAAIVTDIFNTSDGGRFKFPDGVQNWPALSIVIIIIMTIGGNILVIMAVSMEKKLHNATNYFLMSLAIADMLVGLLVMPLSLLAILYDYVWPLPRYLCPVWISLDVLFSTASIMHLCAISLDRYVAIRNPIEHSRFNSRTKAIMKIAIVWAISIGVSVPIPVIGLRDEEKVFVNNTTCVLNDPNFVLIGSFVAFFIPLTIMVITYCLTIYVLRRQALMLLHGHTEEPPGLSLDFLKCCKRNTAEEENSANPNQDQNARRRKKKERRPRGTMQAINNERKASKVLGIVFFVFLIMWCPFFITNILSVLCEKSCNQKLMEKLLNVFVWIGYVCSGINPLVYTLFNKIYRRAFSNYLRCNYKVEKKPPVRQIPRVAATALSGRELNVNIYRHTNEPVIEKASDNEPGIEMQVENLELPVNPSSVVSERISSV
`N[C@@H](Cc1c[nH]c2ccc(O)cc12)C(=O)O` [OXITRIPTAN] was tested, and the EC50 was 0.219 nM. `COc1ccc(Cl)c(Cl)c1C1CC1CN` (stereo unspecified) gave an EC50 of 1.1 nM. `C=CCOc1cc(F)c(Cl)cc1C1CC1CN` (stereo unspecified) showed an EC50 of 308 nM. `NCC1CC1c1c(OCCF)ccc(F)c1F` (stereo unspecified) was tested, and the EC50 was 509 nM. `COc1cc(Cl)c(Cl)cc1C1CC1CN` (stereo unspecified) showed an EC50 of 13 nM. For `NCC1CC1c1c(OCCF)ccc(Cl)c1Cl` (stereo unspecified), the EC50 was 234 nM. Molecule `C=CCOc1ccc(F)c(F)c1C1CC1CN` (stereo unspecified) has an EC50 of 151 nM. With `NCC1CC1c1cc(Cl)c(F)cc1OCCF` (stereo unspecified) the EC50 was 776 nM. For `COc1ccc(F)c(F)c1C1CC1CN` (stereo unspecified), the EC50 was 15 nM. Work on `NCC1CC1c1c(OCCF)ccc(Cl)c1F` (stereo unspecified) yielded an EC50 of 386 nM.
